Assay results taken from US20200121604A1, “SOLID FOSMETPANTOTENATE FORMULATIONS” (Retrophin, Inc., priority 2017, published 2020).

Tests used:
[1] = test system: wild-type and PanK2-deficient IRM32 cells; assay: Half-life of Coenzyme A in cells treated with labeled fosmetpantotenate or pantothenic acid; assay type: cell-based
Procedure: The half-life of Coenzyme A (CoA) was determined for both wild-type and PanK2-deficient IRM32 cells.
Stable isotopically labeled pantothenic acid (vitamin B5) and fosmetpantotenate, a compound currently in a Phase 3 clinical trial for the treatment of […], were prepared. The PanK2-deficient cell line was treated with labeled fosmetpantotenate (100 μM) while the parental IRM32 (WT) line was treated with labeled pantothenic acid. After 24 h the media was changed to complete media and the cells were harvested at various time points. The fraction of labeled CoA, both free and total, with respect to time 0 was calculated to determine the half-life of CoA under each of these conditions.

[2] = Chemical stability of fosmetpantotenate with and without acetic acid, alone and with MCC, 30° C./65% RH, reverse-phase HPLC; assay type: physicochemical; details: weight percent; for Phenol (%): main degradant
Procedure: Fosmetpantotenate was prepared and purified as in Examples 1 (“with acetic acid”) and Example 28 (“without acid”). Flowability and stability were analyzed for the acetic acid-containing fosmetpantotenate and the “without acid” fosmetpantotenate, alone and when formulated with MCC.
For the MCC formulations, fosmetpantotenate was diluted 1:1 (w:w) with ethyl acetate (HPLC grade, EMD) to generate a solution of viscosity suitable for wet granulation. Porous MCC (Avicel® PH200) was sieved via 120 mesh (125 μm opening) to remove fine particles and then placed in a Freund-Vector GMX-LAB Micro high shear granulator (1 L stainless steel bowl). The impeller speed was kept at 125 rpm during the process. 40 g of 50 wt % fosmetpantotenate ethyl acetate solution (contains 20 g fosmetpantotenate) was added into 80 g substrate at approximately 8 g/min drop-wise via a glass transfer pipette to achieve a 20:80 fosmetpantotenate:MCC ratio (i.e., 20% drug loading by weight). The resulting materials were agitated for an additional 10 minutes followed by tray drying overnight at room temperature to facilitate removal of ethyl acetate.
For the stability analysis, samples of fosmetpantotenate were subdivided and transferred into separate 20 mL clear scintillation vials (about 1 g sample per vial). Closed vials were then placed individually into 5″×7″ foil pouches (CADPAK N-HD, WVTR 0.0005 g/100 in^2/day at 90% RH 40° C.). followed by heat sealing the pouches without desiccant inside. Fosmetpantotenate powder samples were weighed (3 g) and placed directly into the same foil pouches described above, and heat sealed without desiccant inside. Closed samples were stored at 30° C./65% RH and measured after 0, 2, 4, and 8 weeks.
Measurement of impurities was performed by reverse-phase HPLC, utilizing the methods in Table 10. Water:acetonitrile 95:5 (v:v) with 0.005% phosphoric acid was used to extract the API (fosmetpantotenate) from the granulation at concentration of 0.75 mg/mL on an active basis. The sample suspension was ultrasonicated for 10 minutes to ensure complete API extraction followed by filtration using 0.45 μm PTFE filters to remove insoluble materials (i.e., MCC in the granulation samples). The filtrates were then transferred to individual vials and analyzed by HPLC.

[3] = reference substances; cited from earlier work
[4] = Chemical stability of formulations, 30° C. and 65% relative humidity, closed containers, 12 weeks, total impurities by HPLC; assay type: physicochemical
Procedure: A stability study was performed to assess the stability of fosmetpantotenate in the following formulations: 1 g fosmetpantotenate (“drug only”; containing approximately 10% acetic acid); 75 mg fosmetpantotenate EA capsules (10% ethyl acetate); 75 mg fosmetpantotenate LG-90 capsules (38% laurylglycol 90); fosmetpantotenate MCC granulation, as described in Example 2; and fosmetpantotenate mannitol granulation, as described in Example 3; and 25:75 fosmetpantotenate:HPMCAS-L Spray Dried Dispersion (SDD) granulation, as described in Example 24. Additionally, fosmetpantotenate without solid excipient or solvent (“drug only”) was stored closed in borosilicate glass vials. Formulations contained in soft gel capsules were stored in closed HDPE bottles, and solid fosmetpantotentate granulation formulations were stored in closed foil-foil packaging. Stability samples were stored at ca. −20° C. (control samples) and at 30° C. and 65% relative humidity in closed containers for 12 weeks.
The amount of total impurities was determined via integration of HPLC peak areas within 3 days after the formulations were prepared and before beginning storage (time=0 weeks). The amount of total impurities was measured again after 2 weeks, 4 weeks, 6 weeks, 8 weeks, and 12 weeks of storage. […]

[5] = Accelerated stability of 10% drug loaded formulations, 25° C./60% RH, total related substances by HPLC; assay type: physicochemical; details: 10% drug loading
Procedure: Fosmetpantotenate was thinned with ethyl acetate (EtOAc) at a 1:1 weight/weight ratio, and then blended with each solid excipient using a mortar and pestle on the 0.1 g scale of fosmetpantotenate, i.e., 0.2 g 50% (fosmetpantotenate/EtOAc)+0.9 g solid. The resulting materials were dried overnight at room temperature in a HEPA hood to remove excess EtOAc.
The formulations were stored under accelerated stability conditions (25° C./60% relative humidity (RH)) for 4 weeks. Some samples were stored in “open” conditions, i.e., exposed to air; other samples were stored in closed containers. The amount of impurities was measured at beginning of storage (t=0), after 2 weeks of storage (t=2 weeks), and after 4 weeks of storage (t=4 weeks). The amount of impurities (total related substances, expressed as a percentage) was determined using the methods described in Example 26 below.
The amount of total impurities was determined via integration of HPLC peak areas within 3 days after the formulations were prepared and before beginning storage (time=0 weeks). The amount of total impurities was measured again after 2 weeks, 4 weeks, 6 weeks, 8 weeks, and 12 weeks of storage. Capsule samples for analysis were prepared by dissolving 5 capsules in a volumetric flask with H2O/ACN 50/50 (v/v) containing 0.1% (v/v) HCOOH. “Drug only” and granulation samples were prepared by adding the sample directly into a volumetric flask and diluting with H2O/ACN 50/50.

CC(C)(COP(=O)(O)OP(=O)(O)OC[C@H]1O[C@@H](n2cnc3c(N)ncnc32)[C@H](O)[C@@H]1OP(=O)(O)O)[C@@H](O)C(=O)NCCC(=O)NCCS [CoA, Coenzyme A]
half-life of CoA, PanK2-deficient versus WT cells [1]: somewhat shorter in PanK2-deficient cells than in WT cells

COC(=O)CCNC(=O)[C@H](O)C(C)(C)COP(=O)(N[C@@H](C)C(=O)OC)Oc1ccccc1 (some centres unmarked) [Fosmetpantotenate, no acid]
Phenol (%) ([2]; 30° C./65% RH closed, t = 2 wk): 0.20%
Phenol (%) ([2]; 30° C./65% RH closed, t = 4 wk): 0.42%
Phenol (%) ([2]; 30° C./65% RH closed, t = 8 wk): 1.62%
Phenol (%) ([2]; t = 0): 0.12%
Impurities, excluding phenol (%) ([2]; 30° C./65% RH closed, t = 2 wk): 3.69%
Total impurities (%) ([2]; 30° C./65% RH closed, t = 2 wk): 4.44%
Impurities, excluding phenol (%) ([2]; 30° C./65% RH closed, t = 4 wk): 7.01%
Total impurities (%) ([2]; 30° C./65% RH closed, t = 4 wk): 8.54%
Impurities, excluding phenol (%) ([2]; 30° C./65% RH closed, t = 8 wk): 12.82%
Total impurities (%) ([2]; 30° C./65% RH closed, t = 8 wk): 17.73%
Impurities, excluding phenol (%) ([2]; t = 0): 2.28%
Total impurities (%) ([2]; t = 0): 2.75%

O [Water]
Viscosity (Cp) [3]: 1 Cp

COC(=O)CCNC(=O)[C@H](O)C(C)(C)COP(=O)(N[C@@H](C)C(=O)OC)Oc1ccccc1 (stereo partly drawn) [fosmetpantotenate, methyl 3-((2R)-2-hydroxy-4-(((((S)-1-methoxy-1-oxopropan-2-yl)amino)(phenoxy)phosphoryl)oxy)-3,3-dimethylbutanamido)propanoate]
average amount of degradation per week [4]: 2.6%
Total % Related Substances ([5]; 25° C./60% RH, t = 2 weeks, Closed): 5.76%
Total % Related Substances ([5]; 25° C./60% RH, t = 2 weeks, Open): 5.94%
Total % Related Substances ([5]; 25° C./60% RH, t = 4 weeks, Closed): 6.39%
Total % Related Substances ([5]; 25° C./60% RH, t = 4 weeks, Open): 6.29%
Total % Related Substances ([5]; t = 0): 4.80%
